pIC50: −log10 of the molar value.
Key:
[1] = target: T1, Receptor-type tyrosine-protein kinase FLT3 (Homo sapiens, UniProt P36888, ITD); test: Inhibition of human partial length FLT3 ITD mutant expressed in bacterial expression system by Kinomescan method
[2] = target: T1, Receptor-type tyrosine-protein kinase FLT3; assay type: cell-based, BaF3
Description: Inhibition of FLT3 ITD mutant (unknown origin) expressed in mouse BaF3 cells

[3] = target: Receptor-type tyrosine-protein kinase FLT3 (Homo sapiens, UniProt P36888, D835Y/ITD); assay type: cell-based, BaF3
Description: Inhibition of FLT3 ITD/D835Y double mutant (unknown origin) expressed in mouse BaF3 cells

[4] = target: Receptor-type tyrosine-protein kinase FLT3 (Homo sapiens, UniProt P36888, F691L/ITD); assay type: cell-based, BaF3
Description: Inhibition of FLT3 ITD/F691L double mutant (unknown origin) expressed in mouse BaF3 cells

BaF3 = test: cells; conditions: Mus musculus
Description: Cytotoxicity against mouse BaF3 cells assessed as reduction in cell viability

[5] = (§1) Inhibition of Wnt/beta-Catenin signaling (unknown origin) expressed in STF3a cells incubated for 24 hrs by STF luciferase reporter gene assay; assay type: cell-based; conditions: Homo sapiens
STF3A = test: as §1; assay type: cell-based; conditions: Homo sapiens

Row | Structure (SMILES) | pIC50 [1] | pIC50 [2] | pIC50 [3] | pIC50 [4] | pIC50 (BaF3) | pIC50 [5] | inhibition (STF3A)
1 | CC(C)(C)c1cc(NC(=O)Nc2ccc(Oc3ncnc4[nH]ncc34)c(F)c2)no1 | 8.89 | 10.42 | 6.89 | 6.97 | 5.50 |  | 
2 | CCOc1cc2c(Oc3ccc(NC(=O)Nc4cc(C(C)(C)C)on4)cc3F)ccnc2cc1OC |  | 8.14 | 7.96 | 7.52 | 5.54 |  | 
3 | COc1cc2c(Oc3ccc(NC(=O)Nc4cc(C(C)(C)C)on4)cc3F)ccnc2cc1OCC1CCCC1 |  | 7.18 | 6.98 | 6.72 | 5.26 |  | 
4 | CC(C)(C)c1cc(NC(=O)Nc2ccc(Oc3ccnc4[nH]ncc34)c(F)c2)no1 |  | 9.53 | 7.46 | 7.46 | 5.58 |  | 
5 | COCCOc1cc2c(Oc3ccc(NC(=O)Nc4cc(C(C)(C)C)on4)cc3F)ccnc2cc1OC |  | 8.31 | 8.00 | 7.68 | 5.52 |  | 
6 | CCOc1cc2nccc(Oc3ccc(NC(=O)Nc4cc(C(C)(C)C)on4)cc3F)c2cc1OC |  | 8.28 | 8.22 | 8.08 | 5.78 |  | 
7 | CCCOc1cc2nccc(Oc3ccc(NC(=O)Nc4cc(C(C)(C)C)on4)cc3F)c2cc1OC |  | 7.72 | 7.83 | 7.27 | 5.31 |  | 
8 | CC(C)(C)c1cc(NC(=O)Nc2ccc(Oc3ccnc4cc(OCC5CCCC5)c(OCC5CCCC5)cc34)c(F)c2)no1 |  | 7.43 | 7.55 | 7.41 | 5.19 |  | 
9 | COCCOc1cc2nccc(Oc3ccc(NC(=O)Nc4cc(C(C)(C)C)on4)cc3F)c2cc1OCCOC |  | 8.29 | 7.96 | 7.80 | 5.70 |  | 
10 | COCCOc1cc2nccc(Oc3ccc(NC(=O)Nc4cc(C(C)(C)C)on4)cc3F)c2cc1OC |  | 8.33 | 8.27 | 7.92 | 5.95 |  | 
11 | COc1cc2nccc(Oc3ccc(NC(=O)Nc4cc(C(C)(C)C)on4)cc3F)c2cc1OC |  | 10.14 | 8.46 | 8.23 | 5.92 | > 6.30 | Dose-dependent effect
12 | CCCOc1cc2c(Oc3ccc(NC(=O)Nc4cc(C(C)(C)C)on4)cc3F)ccnc2cc1OC |  | 7.12 | 6.80 | 6.53 | 5.11 |  | 
13 | CCOc1cc2nccc(Oc3ccc(NC(=O)Nc4cc(C(C)(C)C)on4)cc3F)c2cc1OCC |  | 8.51 | 7.81 | 7.49 | 5.50 |  | 
14 | COc1cc2c(Oc3ccc(NC(=O)Nc4cc(C(C)(C)C)on4)cc3F)ccnc2cc1OCC(C)C |  | 7.44 | 7.20 | 6.90 | 5.32 |  | 
15 | COc1cc2c(Oc3ccc(NC(=O)Nc4cc(C(C)(C)C)on4)cc3F)ncnc2cn1 |  | 8.92 | 7.19 | 5.99 | 5.52 |  | 
16 | COc1cc2c(Oc3ccc(NC(=O)Nc4cc(C(C)(C)C)on4)cc3F)ccnc2cc1OCC1CO1 (stereo not given) |  | 5.58 | 5.45 | 5.28 | 5.04 |  | 
17 | COc1cc2nccc(Oc3ccc(NC(=O)Nc4cc(C(C)(C)C)on4)cc3F)c2cc1OCCCN1CCOCC1 |  | 8.24 | 8.20 | 7.77 | 5.74 |  | 
18 | COc1cc2ncnc(Oc3ccc(NC(=O)Nc4cc(C(C)(C)C)on4)cc3F)c2cc1OC |  | 8.82 | 8.10 | 7.86 | < 5.70 |  | 
19 | CC(C)(C)c1cc(NC(=O)Nc2ccc(Oc3ccnc4[nH]ccc34)c(F)c2)no1 |  | 6.85 | 6.13 | 5.99 | < 5.00 |  | 
20 | CC(C)(C)c1cc(NC(=O)Nc2ccc(Oc3ccnc4nc[nH]c34)c(F)c2)no1 |  | 10.82 | 7.91 | 7.73 | 5.68 |  | 
21 | COc1cc2nccc(Oc3ccc(NC(=O)Nc4cc(C(C)(C)C)on4)cc3F)c2cc1OC(C)C |  | 8.16 | 7.97 | 7.64 | 5.69 |  | 
22 | CC(C)(C)c1cc(NC(=O)Nc2ccc(Oc3nccc4ccccc34)c(F)c2)no1 |  | 5.90 | < 5.00 | < 5.00 | < 5.00 |  | 
23 | COc1cc2c(Oc3ccc(NC(=O)Nc4cc(C(C)(C)C)on4)cc3F)ccnc2cc1OCCCN1CCOCC1 |  | 8.49 | 8.29 | 8.00 | 5.96 |  | 

Source: ChEMBL document CHEMBL4699484, “Discovery of small molecule FLT3 inhibitors that are able to overcome drug-resistant mutations” (Bioorg Med Chem Lett, 2020)
